In ChEMBL document CHEMBL1201862, “PubChem BioAssay data set” (2004):
Several values for one entry are separate records, joined by “and”; a condition that tells them apart may be missing. Equal entries are not always repeated.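 Each compound was tested at five concentrations against cells in 96-well plates for 48 hours. Here, GI50 denotes the concentration required for 50% inhibition of growth.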 Activity calls are given as the source filed them. Cut-off read from the data, not from the text of the source: active = GI50 up to about 1.1 µM and inactive = higher.

Experiments:
Experiment in all cases: NCI anticancer screen, dose series, 48 h
786-0 = test system: 786-0
A498 = test system: A498
A549 = test system: A549
BT-549 = test system: BT-549
EKVX = test system: EKVX
HCT-116 = test system: HCT-116
HOP-92 = test system: HOP-92
Hs-578T = test system: Hs-578T
K562 = test system: K562
Malme-3M = test system: Malme-3M
OVCAR-4 = test system: OVCAR-4
PC-3 = test system: PC-3
RXF 393 = test system: RXF 393
SK-MEL-5 = test system: SK-MEL-5
SK-OV-3 = test system: SK-OV-3
SNB-75 = test system: SNB-75
SR = test system: SR
U-251 = test system: U-251
UACC-62 = test system: UACC-62
NCI-H226 = test system: NCI-H226

Measured: GI50

CC(=O)OC1OC(C2c3cccc(O)c3C(=O)c3c(O)cc(CO)cc32)C(O)C(O)C1O (stereo not given)
inactive: 786-0 4.18 µM and 4.13 µM | A498 6.34 µM | A549 2.8 µM and 5.56 µM | BT-549 4.66 µM and 5.7 µM | EKVX 3.78 µM and 2.64 µM | HCT-116 3.01 µM and 2.92 µM | HOP-92 3.1 µM | Hs-578T 2.31 µM and 2.22 µM | K562 3.16 µM and 3 µM | Malme-3M 4.39 µM and 3.45 µM | OVCAR-4 5.38 µM and 6.61 µM | PC-3 3.01 µM and 2.32 µM | RXF 393 9.4 µM and 6.84 µM | SK-MEL-5 1.53 µM and 1.68 µM | SK-OV-3 4.14 µM and 2.62 µM | SNB-75 3.27 µM and 5.27 µM | SR 2.67 µM and 1.93 µM | U-251 3.66 µM | UACC-62 4.22 µM and 4.29 µM

CC(C)OP(=O)(OC(C)C)C(C(F)(F)F)C(F)(F)F
inactive: 786-0 > 100 µM | A549 > 100 µM | BT-549 > 100 µM | EKVX > 100 µM | HCT-116 > 100 µM | HOP-92 > 100 µM | Hs-578T > 100 µM | K562 > 100 µM | Malme-3M > 100 µM | NCI-H226 > 100 µM | OVCAR-4 > 100 µM | PC-3 > 100 µM | RXF 393 > 100 µM | SK-MEL-5 > 100 µM | SK-OV-3 > 100 µM | SNB-75 > 100 µM | SR > 100 µM | U-251 > 100 µM | UACC-62 > 100 µM

Cc1nn(C(=O)c2ccc(Cl)cc2)c2c1C(c1ccc(Cl)cc1)SC(=N)N2 (stereo not given)
inactive: 786-0 > 10 µM | A549 > 10 µM | BT-549 > 10 µM | EKVX > 10 µM | HCT-116 > 10 µM | HOP-92 > 10 µM | Hs-578T > 10 µM | K562 > 10 µM | Malme-3M > 10 µM | NCI-H226 > 10 µM | OVCAR-4 > 10 µM | PC-3 > 10 µM | RXF 393 > 10 µM | SK-MEL-5 > 10 µM | SK-OV-3 > 10 µM | SNB-75 > 10 µM | SR > 10 µM | U-251 > 10 µM | UACC-62 > 10 µM

CC1=C(C(=O)NNC(=O)C[N+](C)(C)C)CC(C(=O)NNC(=O)C[N+](C)(C)C)=C(C)N1
inactive: 786-0 > 100 µM | A498 61.7 µM | A549 > 100 µM | BT-549 > 100 µM | EKVX > 100 µM | HCT-116 > 100 µM | HOP-92 71.8 µM | Hs-578T > 100 µM | K562 > 100 µM | NCI-H226 > 100 µM | OVCAR-4 > 100 µM | PC-3 > 100 µM | RXF 393 > 100 µM | SK-MEL-5 > 100 µM | SK-OV-3 > 100 µM | SR 35.6 µM | U-251 > 100 µM | UACC-62 > 100 µM
